Measured values reported in the supplement of paper PMC10307832.

Tests used:
Assay in all cases: relative viability (nuclei count vs DMSO), 5 days (fraction); higher = more cells survive
[1] = compound: c1ccc2c(CCNc3ccc(Nc4ccncc4)cc3)c[nH]c2c1 [Serdemetan] + Cc1nc(NC(=O)N2CCC[C@H]2C(N)=O)sc1-c1ccnc(C(C)(C)C(F)(F)F)c1 [Alpelisib] (partner 2 µM)
Procedure, shortened: (§1)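 After 5 days of treatment, lung cancer cells in 1536-well plates were fixed and stained in a single step (final 0.05% Triton X-100, 1% formaldehyde, 1 ug/ml Hoechst) and their nuclei counted on 4× images. Treatment had been applied by pin tool the day after seeding as one drug alone or as a fixed anchor-drug dose with five library-drug doses (not always all listed) in √10 steps. Relative viability is the nuclei count of treated wells divided by that of vehicle wells, and values are medians of duplicate plates.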

[2] = compound: C1CC(C2=C(C1)C3=C(N2)C=CC(=C3)Cl)C(=O)N [Selisistat] + NC(=O)Nc1cc(-c2cccc(F)c2)sc1C(=O)N[C@H]1CCCNC1 [AZD7762] (partner 0.2 µM)
Procedure, shortened: as §1

[3] = compound: C1CC(C2=C(C1)C3=C(N2)C=CC(=C3)Cl)C(=O)N [Selisistat] + Cc1cc(Nc2cc(N3CCN(C)CC3)nc(Sc3ccc(NC(=O)C4CC4)cc3)n2)n[nH]1 [Tozasertib] (partner 0.1 µM)
Procedure, shortened: as §1

[4] = compound: C1CC(C2=C(C1)C3=C(N2)C=CC(=C3)Cl)C(=O)N [Selisistat] + COc1cccc2cc(-c3nc([C@H]4CC[C@H](C(=O)O)CC4)n4ncnc(N)c34)[nH]c12 [OSI-027] (partner 0.5 µM)
Procedure, shortened: as §1

Cell Line	relative viability ([1]; first compound 0.04 µM)	relative viability ([1]; first compound 0.1265 µM)	relative viability ([1]; first compound 1.265 µM)	relative viability ([1]; first compound 4 µM)	relative viability ([2]; first compound 0.4 µM)	relative viability ([2]; first compound 1.265 µM)	relative viability ([2]; first compound 4 µM)	relative viability ([2]; first compound 12.65 µM)	relative viability ([2]; first compound 40 µM)	relative viability ([3]; first compound 0.4 µM)	relative viability ([3]; first compound 1.265 µM)	relative viability ([3]; first compound 4 µM)	relative viability ([3]; first compound 12.65 µM)	relative viability ([3]; first compound 40 µM)	relative viability ([4]; first compound 0.4 µM)	relative viability ([4]; first compound 1.265 µM)	relative viability ([4]; first compound 4 µM)	relative viability ([4]; first compound 12.65 µM)	relative viability ([4]; first compound 40 µM)	relative viability ([1]; first compound 0.4 µM)
LOU-NH91	0.741	0.677	0.761	0.679	0.751	0.755	0.775	0.723	0.841	0.784	0.626	0.598	0.703	0.673	0.814	0.715	0.675	0.756	0.708	
PC-14	0.954	0.93	0.852	0.825	0.381	0.344	0.226	0.278	0.36	0.649	0.563	0.522	0.581	0.656	0.973	0.783	0.755	0.819	0.931	0.784
NCI-H1437	0.936	1.01	0.807	0.802	1.17	1.12	0.918	0.99	1.01	0.426	0.398	0.339	0.369	0.369	0.908	0.915	0.631	0.891	0.783	0.896
NCI-H460	0.506	0.415	0.171	0.0988	0.617	0.488		0.571	0.697	0.515	0.366	0.289	0.28	0.441	0.695	0.667	0.471	0.557	0.666	0.333
NCI-H1666	1.22	1	0.794	0.807	0.841	0.83	0.806	0.895	0.96	0.631	0.591	0.594	0.589	0.541	0.794	0.744	0.841	0.673	0.711	0.891
NCI-H1651	0.889	0.78	0.371	0.213	0.426	0.491	0.462	0.521	0.523	0.7	0.735	0.599	0.618	0.584	0.605	0.744	0.705	0.674	0.764	0.65
NCI-H1755	0.893	0.898	0.499	0.456	0.427	0.391	0.407	0.407	0.43	0.635	0.613	0.621	0.525	0.61	0.745	0.736	0.739	0.686	0.746	0.815
HARA	0.783	0.819		0.391	0.237	0.342		0.364	0.219	0.137	0.12	0.119	0.154	0.1	0.632	0.405	0.382	0.508	0.477	0.741
NCI-H596	0.477	0.498	0.369	0.298	1.14	1.01	0.887	1.05	1.06	0.848	0.753	0.898	0.835	0.914	0.793	0.692	0.505	0.698	0.732	0.481
NCI-H23	0.674	0.682	0.538	0.596	0.297	0.193		0.31	0.169	0.377	0.384	0.319	0.33	0.295	0.56	0.602	0.508	0.529	0.605	0.577
LCLC-97TM1	0.258	0.203	0.225	0.202	0.187	0.208		0.342	0.183	0.207	0.216		0.231	0.212	0.59	0.653		0.553	0.619	0.241
EPLC-272H	0.968	0.834	0.647	0.843	0.236	0.215		0.318	0.336	0.265	0.231		0.34	0.191	0.274	0.237		0.289	0.289	0.881
NCI-H1915	1.04	1.06	0.503	0.802	0.668	0.687	0.775	0.674	0.757	0.436	0.41	0.374	0.339	0.41	0.678	0.646	0.425	0.605	0.646	1.01
NCI-H2405	0.881	0.918	0.772	0.543	0.718	0.732		0.725	0.678	0.784	0.752	0.719	0.763	0.722	0.674	0.579	0.598	0.674	0.666	0.826
NCI-H322M	0.853	0.875	0.755	0.75	0.579	0.657		0.572	0.675	0.552	0.475	0.455	0.469	0.495	0.607	0.583	0.461	0.507	0.576	0.838
NCI-H2170	0.776	0.854	0.721	0.811	0.868	0.939	0.82	0.854	0.911	0.732	0.592	0.703	0.629	0.8	0.839	0.692	0.63	0.766	0.739	0.833
NCI-H1395	0.863	0.903	0.912	0.564	0.377	0.393		0.394	0.4	0.705	0.698	0.81	0.8	0.686	0.691	0.675	0.53	0.502	0.622	1.12
